Measured values published in patent US20250171400A1, “AZA-HETEROCYCLYL CARBOXAMIDE AND RELATED COMPOUNDS AND THEIR USE IN TREATING MEDICAL CONDITIONS” (X-BIOTIX THERAPEUTICS, INC., priority 2021, published 2025).
Converted amounts (≈) assume the structure as drawn. Like-named read-outs stand apart in the source and are kept apart here.

Assays:
[1] = target: E. coli LpxC (Escherichia coli (strain K12), UniProt P0A725); test: in vitro substrate deacetylation assay for inhibition of LpxC (ADDA analysis); assay type: biochemical; conditions: 5 nM E. coli LpxC, 2.5 μM substrate, 1 hour at room temperature
Method: (§1) Exemplary compounds from the above Examples were tested for ability to inhibit LpxC activity using an in vitro substrate deacetylation assay with ADDA™ analysis. Assay procedures and results are described below.
Dilutions of test compound were pre-incubated with 5 nM P. aeruginosa or E. coli LpxC for 10 minutes at room temperature in 50 mM NaH2PO4, 500 mM sucrose, 0.2 mg/mL BSA, pH 7.2 and <1% DMSO. Reactions were initiated by the addition of 2× substrate (UDP-3-O—(R-3-hydroxydecanoyl)-N-acetylglucosamine, Carbosynth Ltd, UK, for P. aeruginosa LpxC and UDP-3-O—(R-3-hydroxymyristoyl)-N-acetylglucosamine, BOC Sciences, USA, for E. coli LpxC), in 50 mM NaH2PO4, 0.5 mg/mL BSA, pH 7.2, to a final concentration of 2.5 μM. Reactions proceeded for 1 hour at room temperature prior to quenching with and equal volume of 2% acetic acid.
For ADDA™ analysis, an aliquot of assay sample was withdrawn from each well of the 384-well plate and applied to a Hypercarb cartridge (Optimize Technologies, USA) under conditions designed to retain analytes of interest. Analytes were eluted using 1:1:2 acetone:acetonitrile:water containing 5 mM ammonium acetate then analysed by triple-quadrupole mass spectrometry. Mass spectrometry was carried out using electrospray ionization in negative ion mode. Daughter ion peaks representing detected substrate (P. aeruginosa: parent Q1 mass=775.8 amu, daughter Q3 mass=384.7 amu E. coli: parent Q1 mass=833.0 amu, daughter Q3 mass=385.0 amu, collision energy=analyte specific, dwell time=50 ms) were identified using a multiple-reaction monitoring protocol.
Total activity (0% inhibition) was obtained from reactions containing no compound, and 100% inhibition is defined as reactions in the presence of 1 μM CHIR-090 (N-[(1S,2R)-2-hydroxy-1-[(hydroxyamino)carbonyl]propyl]-4-[2-[4-(4-morpholinylmethyl)phenyl]ethynyl]-benzamide). For IC50 determinations, peak areas of the substrate and product were compared to compute the proportion of substrate reacted by the LpxC enzyme at each compound concentration. The fractional activity was converted to percentage inhibition and plotted against compound concentration in ActivityBase™ and fit using a four-parameter logistic using non-linear regression to yield the IC50 value.

[2] = system: wild-type P. aeruginosa PAO1; test: broth microdilution minimum inhibition concentration assay; assay type: cell-based; conditions: Pseudomonas aeruginosa
Method: (§2) Exemplary compounds from the above Examples were tested to determine their minimum inhibitory concentration (MIC) for exemplary strains of Eschericia and Pseudomonas bacteria using broth microdilution methods. Assay procedures and results are described below.
(§3) Broth microdilution assays were conducted according to Clinical and Laboratory Standards Institute guidelines (CLSI, M07-A11: Clinical and Laboratory Standards Institute. Methods for Dilution Antimicrobial Susceptibility Tests for Bacteria that Grow Aerobically; Approved Standard—11th Edition. Wayne, PA: CLSI, 2018.). Briefly, a 0.5 McFarland standard suspension was made from bacterial isolates on non-selective, solid media. The inocula were adjusted to give a bacterial concentration of 1×10^6 CFU/mL. Serial doubling-dilutions of each compound were prepared in cation-adjusted Mueller-Hinton broth (Sigma-Aldrich) in 96-well microdilution plates. A 50 μL aliquot of the inoculum was added to each microdilution plate and, within 15 minutes, incubated at 37° C. in air for 16-20 h. […] The test was controlled by the determination of piperacillin MIC against both E. coli ATCC 25922 and P. aeruginosa ATCC 27853 and ensuring accordance with the ranges published in CLSI supplementary document M100 (CLSI, M100Ed29: Clinical and Laboratory Standards Institute. Performance Standards for Antimicrobial Susceptibility Testing, 29th Edition. Wayne, PA: CLSI, 2018.).
(§4) Multiple enterobacteriaceae strains were tested, including E. coli ATCC 25922 and K. pneumoniae ATCC 43816. WT E. coli BW25113 was tested with an isogenic mutant deficient in acrA mediated efflux by clean deletion. WT P. aeruginosa PAO1 was tested with an isogenic mutant deficient in MexA mediated efflux by clean deletion.
(§5) Experimental results are provided in Table 4, which provides MIC values for wild-type E. coli BW25113 (“E. coli WT MIC”), an isogenic mutant deficient in acrA mediated efflux by clean deletion (“E. coli KO MIC”), wild-type P. aeruginosa PAO1 (“P. aeruginosa WT MIC”), and an isogenic mutant deficient in MexA mediated efflux by clean deletion (“[…]”).

[3] = system: wild-type E. coli BW25113; test: as above; assay type: cell-based; conditions: Escherichia coli; wild-type E. coli BW25113, 37° C. 16-20 h; read-out: E. coli WT MIC
Method: as §2, §3, §4, §5

[4] = system: E. coli BW25113 isogenic mutant deficient in acrA mediated efflux; test: as above; assay type: cell-based; conditions: Escherichia coli, BW25113, read-out: E. coli KO MIC
Method: as §2, §3, §4, §5

[5] = system: P. aeruginosa PAO1 isogenic mutant deficient in MexA mediated efflux; test: as above; assay type: cell-based; conditions: Pseudomonas aeruginosa, PAO1, read-out: P. aeruginosa KO MIC
Method: as §2, §3, §4, §5

[6] = target: P. aeruginosa LpxC (Pseudomonas aeruginosa (strain ATCC 15692 / DSM 22644 / CIP 104116 / JCM 14847 / LMG 12228 / 1C / PRS 101 / PAO1), UniProt P47205); test: biochemical; assay type: biochemical; conditions: 5 nM P. aeruginosa LpxC, 2.5 μM substrate, 1 hour at room temperature
Method: as §1
For ADDA™ analysis, an aliquot of assay sample was withdrawn from each well of the 384-well plate and applied to a Hypercarb cartridge (Optimize Technologies, USA) under conditions designed to retain analytes of interest. Analytes were eluted using 1:1:2 acetone:acetonitrile:water containing 5 mM ammonium acetate then analysed by triple-quadrupole mass spectrometry. Mass spectrometry was carried out using electrospray ionization in negative ion mode.
For IC50 determinations, peak areas of the substrate and product were compared to compute the proportion of substrate reacted by the LpxC enzyme at each compound concentration.

[7] = PAO1, read-out: P. aeruginosa WT MIC
[8] = wild-type P. aeruginosa PAO1, 37° C. 16-20 h, read-out: P. aeruginosa WT MIC

Chain of E. coli LpxC (P0A725 whole entry): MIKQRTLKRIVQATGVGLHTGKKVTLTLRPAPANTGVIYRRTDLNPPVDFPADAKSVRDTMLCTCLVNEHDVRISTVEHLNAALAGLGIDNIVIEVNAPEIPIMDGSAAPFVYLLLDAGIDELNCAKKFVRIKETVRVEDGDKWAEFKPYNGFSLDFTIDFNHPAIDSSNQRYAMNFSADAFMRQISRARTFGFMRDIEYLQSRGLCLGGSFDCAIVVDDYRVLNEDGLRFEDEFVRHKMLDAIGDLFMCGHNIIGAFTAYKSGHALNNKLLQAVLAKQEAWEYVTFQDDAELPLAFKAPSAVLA

SMILES	IC50 [1] [nM]	MIC [2, 7] [µM]	MIC [3] [µM]	MIC [4] [µM]	MIC [5] [µM]	IC50 [6] [nM]	MIC [2, 8] [µM]
O=C(NC[C@H]1C[C@@H](NC(=O)[C@@H]2C[C@H](F)CN2)CN1C(=O)C1CC1)c1ccc(C#Cc2ccc(CN3CCOCC3)cc2)cc1Cl [Example 6, (2S,4S)—N-((3R,5R)-5-((2-Chloro-4-((4-(morpholinomethyl)phenyl)ethynyl)benzamido)methyl)-1-(cyclopropanecarbonyl)pyrrolidin-3-yl)-4-fluoropyrrolidine-2-carboxamide]	< 500	> 100	< 20	< 20	< 20	50 to 100	
O=C(NC[C@H]1C[C@@H](NC(=O)[C@@H]2C[C@H](F)CN2)CN1C(=O)C1CC1)c1ccc(C#Cc2ccc(CN3CCOCC3)cc2)c(F)c1 [Example 8, (2S,4S)—N-((3R,5R)-1-(cyclopropanecarbonyl)-5-((3-fluoro-4-((4-(morpholinomethyl)phenyl)ethynyl)benzamido)methyl)pyrrolidin-3-yl)-4-fluoropyrrolidine-2-carboxamide]	< 500		< 20	< 20	< 20	< 50	20 to 100 (≈ 12.4 to 62 µg/mL)
CC(C)C(=O)N1C[C@H](NC(=O)[C@@H]2CC(F)(F)CN2)C[C@@H]1C(=O)NCc1ccc(C#Cc2ccccc2)cc1 [Example 9C]	500 to 2500	> 100	> 100	20 to 100 (≈ 10.5 to 52.3 µg/mL)	> 100	100 to 1000	
COCCN(C(=O)[C@@H]1C[C@H](F)CN1)[C@@H]1C[C@H](C(=O)NCc2ccc(C#Cc3ccc(CN4CCOCC4)cc3)cc2)N(C(=O)C2CC2)C1 [Example 9AV, (2R,4R)-1-(Cyclopropanecarbonyl)-4-((2S,4S)-4-fluoro-N-(2-methoxyethyl)pyrrolidine-2-carboxamido)-N-(4-((4-(morpholinomethyl)phenyl)ethynyl)benzyl)pyrrolidine-2-carboxamide]	> 10000		> 100	> 100	> 100	> 1000	> 100
CC(C)C(=O)N1C[C@H](NC(=O)[C@H]2NCC[C@@H]2O)C[C@@H]1C(=O)NCc1ccc(C#Cc2ccc(CN3CCOCC3)cc2)cc1 [Example 9AA]	500 to 2500	> 100	> 100	> 100	20 to 100 (≈ 12 to 60.2 µg/mL)	< 50	
CC(C)C(=O)N1C[C@H](NC(=O)[C@@H]2C[C@H](F)CN2)C[C@@H]1C(=O)NCc1ccc(C#CC#Cc2ccccc2)cc1 [Example 9AT]	500 to 2500		> 100	< 20	< 20	< 50	> 100
O=C(N[C@@H]1C[C@H](C(=O)NCc2ccc(C#CC#CC3CC3)cc2)N(CCO)C1)[C@@H]1C[C@H](F)CN1 [Example 9AQ]	2500 to 10000	> 100	> 100	> 100	> 100	100 to 1000	
NC1CN(C(=O)N2C[C@H](NC(=O)[C@@H]3C[C@H](F)CN3)C[C@@H]2C(=O)NCc2ccc(C#CC#CC3CC3)cc2)C1 [Example 9X]	500 to 2500		> 100	20 to 100 (≈ 10.4 to 52.1 µg/mL)	< 20	< 50	> 100
